Assay results published in patent US5134156A, “Pharmaceutical composition and method for angiogenesis inhibition” (Zaidan Hojin Biseibutsu Kagaku Kai, priority 1989, dated 1992).

How the values were obtained:
[1] = test system: angiogenesis in chorio-allantoic membrane (CAM) of the chicken embryo; assay: Inhibition of angiogenesis in chorio-allantoic membrane (CAM) of the chicken embryo in the incubated chicken egg; type: in vivo; details: for Degree of Inhibition I: number of CAM / Degree of Inhibition II: number of CAM / Degree of Inhibition III: number of CAM / Degree of Inhibition 0: number of CAM: n = 5 tested CAM, 2 days incubation; for Degree of Inhibition I: number of CAM: I-degree: avascular area 2 mm to 4 mm in diameter; for Degree of Inhibition II: number of CAM: II-degree: avascular area 4 mm to 6 mm in diameter; for Degree of Inhibition III: number of CAM: III-degree: avascular area greater than 6 mm in diameter; for Degree of Inhibition 0: number of CAM: zero-degree: avascular area less than 2 mm in diameter
Method: (§1) Fertilized chicken eggs were incubated for 4 days, and one hole was then bored by a gimlet at the top of the air chamber of the incubated eggs and another hole was bored at the lower lateral part of the egg. The white of egg (about 2 ml) was removed by suction at the lower hole of the egg. The air within the air chamber was sucked off through the hole bored at the top of the air chamber of the egg so that the eggshell membrane was released from the chorio-allantoic membrane (CAM) of the chicken embryo. The hole at the lower lateral part of the egg was then sealed. A part of the eggshell was then cut off from the top of the air chamber of the egg and a silicone ring having an inner diameter of 3 mm was placed directly on the chorio-allantoic membrane (having a diameter of 1 to 3 mm) in each egg, followed by pouring a solution (10 μl) containing a predetermined amount of actinonin and 1% methylcellulose in physiological saline into the silicone ring. The top of the air chamber of the egg was covered by a cap and the eggs were then further incubated for 2 days in an incubator. After this further incubation for 2 days, intralipid was injected into the CAM and the CAM so treated was photographed for estimation of the development of blood vessels.
Degree of inhibition to the angiogenesis was evaluated in term of the following four scales of zero degree to III-degree, according to the method of Crum et al (see Crum R., Szabo S., and Folkman J.; A new class of steroid inhibits angiogenesis in the presence of heparin or a heparin fragment in the "Science" 230, pp. 1375-1378 (1985)). Thus, the degree of inhibition to angiogenesis were estimated as follows:
Zero-degree . . . The avasuclar area where the blood vessels were not developed has a size of less than 2 mm in its diameter.
I-degree . . . The avascular area has a size of from 2 mm to 4 mm in its diameter.
II-degree . . . The avascular area has a size of from 4 mm to 6 mm in its diameter.
III-degree . . . The avascular area has a size of greater than 6 mm in its diameter.
In Table 1 below, there are shown the estimated degrees of the angiogenesis-inhibiting activity of actinonin at a dose of 10 to 100 μg per CAM.

mice = assay: Acute toxicity tests in mice by intravenous injection; type: in vivo; details: 400 mg/kg
aminopeptidase M = details: known from the literature; cited from earlier work
[2] = test system: chorio-allantoic membrane; assay: Development/formation of chorio-allantoic membrane in the incubated chicken egg; type: in vivo
Method: as §1

[3] = test system: angiogenesis in chorio-allantoic membrane (CAM) of the chicken embryo; assay: Inhibition of angiogenesis in chorio-allantoic membrane (CAM) of the chicken embryo in the incubated chicken egg; type: in vivo; details: 500 μg to 10 μg per CAM
[4] = I.A.M. Symposia on Microbiology, No. 6 and U.S. Pat. No. 3,240,787; cited from earlier work
[5] = Kokai No. 4228/87; cited from earlier work
chicken embryo = assay: Growth of the chicken embryo, visually observed; type: in vivo; details: 500 μg to 10 μg per CAM
Method: as §1

[6] = Kokai No. 15840/86 and U.S. Pat. No. 4,663,342; cited from earlier work

CCCCC[C@H](CC(=O)NO)C(=O)N[C@H](C(=O)N1CCC[C@H]1CO)C(C)C [actinonin]
Activity inhibitory to the angiogenesis in CAM ([1]; 10 μg/CAM): shows a high activity inhibitory to the angiogenesis in CAM
Degree of Inhibition I: number of CAM ([1]; 10 μg/CAM): 2
Degree of Inhibition II: number of CAM ([1]; 10 μg/CAM): 1
Degree of Inhibition III: number of CAM ([1]; 10 μg/CAM): 1
Degree of Inhibition 0: number of CAM ([1]; 10 μg/CAM): 1
Degree of Inhibition I: number of CAM ([1]; 50 μg/CAM): 1
Degree of Inhibition II: number of CAM ([1]; 50 μg/CAM): 2
Degree of Inhibition III: number of CAM ([1]; 50 μg/CAM): 1
Degree of Inhibition 0: number of CAM ([1]; 50 μg/CAM): 1
Degree of Inhibition I: number of CAM ([1]; 100 μg/CAM): 1
Degree of Inhibition II: number of CAM ([1]; 100 μg/CAM): 1
Degree of Inhibition III: number of CAM ([1]; 100 μg/CAM): 1
Degree of Inhibition 0: number of CAM ([1]; 100 μg/CAM): 2
Angiogenesis-inhibiting activity ([1]; doses of 10 to 100 μg per CAM): shows an angiogenesis-inhibiting activity
Deaths in acute toxicity tests (mice): no deaths
Activity inhibitory to aminopeptidase M (aminopeptidase M): exhibits an activity inhibitory to aminopeptidase M
Inhibition to the development of chorio-allantoic membrane ([2]; 500 μg to 10 μg per CAM, compared to untreated membranes): chorio-allantoic membranes of smaller dimensions as compared to those of the untreated membranes
Inhibition of the formation of chorio-allantoic membrane ([2]; conclusion from the CAM test): without inhibiting the formation of chorio-allantoic membrane
Inhibition of angiogenesis in the chorio-allantoic membrane [3]: can inhibit the angiogenesis
Antibacterial activity [4]: antibacterially active
Analgesic effect [5]: effective as an analgesic agent
Growth of the chicken embryo as a whole (chicken embryo): it was not found that the growth of the chicken embryo as a whole can be inhibited
Immunopotentiating effect [6]: effective as an immunopotentiating agent
